Tested on: HCV genotype 2 (GT2) and genotype 3 (GT3)
Assay: Phase II clinical study: proportion of patients HCV RNA negative by LOQ
Format: in vivo
Settings: monotherapy arm (600 mg BID 1 week, then 1000 mg QD), 25 IU/mL
Experimental: The efficacy of the therapy regimen may be monitored using standard protocols. Treatment may be followed by determinations of HCV in serum and measurement of serum ALT levels. For example, the patients may be assessed for the presence of HCV RNA in their plasma. HCV RNA (IU/mL) can be measured at regular intervals during the treatment, e.g., at Day 1 (pre-dose and 4, 8, and 12 hours post-dose) and pre-dose at Day 2, Day 3, Day 8, Day 15, Day 29, and at Week 12, Week 24, Week 36, Week 48, Week 72 (when applicable), and at follow up. In addition, the HCV strains in the patient can be sequenced and assessed for identification of mutations selecting for resistance.
As used herein, LOD means limit of detection (serum HCV RNA is less than 10 IU/mL) and LOQ means limit of quantification (serum HCV RNA is less than 25 IU/mL). HCV RNA levels can be measured using commercially available methods. […]

C/C=C/C[C@@H](C)[C@@H](O)[C@H]1C(=O)N[C@@H](CC)C(=O)N(C)[C@H](C)C(=O)N(CC)[C@@H](C(C)C)C(=O)N[C@@H](C(C)C)C(=O)N(C)[C@@H](CC(C)C)C(=O)N[C@@H](C)C(=O)N[C@H](C)C(=O)N(C)[C@@H](CC(C)C)C(=O)N(C)[C@@H](CC(C)C)C(=O)N(C)[C@@H](C(C)C)C(=O)N1C [alisporivir, Alisporivir]
patients achieved HCV RNA negative results (fraction in words): one third

Source: patent publication US20130225483A1, “New Treatments of Hepatitis C Virus Infection” (priority 2010, published 2013)
